Legend:
human Gal-1 (hGal-1) = experiment: Competitive binding assay: binding of biotinylated hGal-1 to microplate-adsorbed asialofetuin (ASF); conditions: Activities on hGal-1; mean values of several measurements
In short: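 Compounds diluted in DMSO competed with biotinylated hGal-3 or hGal-1 (300-1000 ng/mL) for binding to plate-adsorbed asialofetuin for 3 h at 4° C. Bound galectin was detected with streptavidin-peroxidase (80 ng/mL, 1 h, 4° C) and ABTS substrate; IC50 reported as mean of several measurements.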

human Gal-3 (hGal-3) = human Gal-3 (hGal-3) (Homo sapiens (Human), UniProt P17931); experiment: Competitive binding assay: binding of biotinylated hGal-3 to microplate-adsorbed asialofetuin (ASF); conditions: Activity on hGal-3; mean values of several measurements
Chain of human Gal-3 (hGal-3) (P17931 whole entry): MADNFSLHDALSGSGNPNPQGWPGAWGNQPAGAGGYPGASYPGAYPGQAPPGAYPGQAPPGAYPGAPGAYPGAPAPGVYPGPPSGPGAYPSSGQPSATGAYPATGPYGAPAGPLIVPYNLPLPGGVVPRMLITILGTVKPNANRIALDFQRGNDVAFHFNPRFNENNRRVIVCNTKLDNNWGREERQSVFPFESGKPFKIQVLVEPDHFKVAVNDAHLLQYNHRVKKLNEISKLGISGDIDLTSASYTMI
In short: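 Biotin-hGal-3/hGal-1 300-1000 ng/mL + cpd (DMSO dilutions) on ASF-coated plate, 3 h 4° C; wash; SA-HRP 80 ng/mL 1 h 4° C; wash; ABTS. IC50 = mean of several runs. hGal-1 preferably Cys→Ser (all six) mutant.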

Chain of human Gal-1 (hGal-1) (P09382 2-135 limits assumed): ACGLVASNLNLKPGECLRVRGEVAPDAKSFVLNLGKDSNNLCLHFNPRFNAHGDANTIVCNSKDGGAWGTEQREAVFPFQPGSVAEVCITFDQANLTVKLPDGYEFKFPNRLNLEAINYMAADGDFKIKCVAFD

Row | SMILES | IC50 (human Gal-1 (hGal-1)) [nM] | IC50 (human Gal-3 (hGal-3)) [nM]
1 | CO[C@@H]1[C@@H](n2cc(-c3cc(F)c(F)c(F)c3)nn2)[C@@H](O)[C@@H](CO)O[C@@H]1Cn1cc(C2CCN(C(=O)NC(C)(C)C)CC2)nn1 [Example 4.27, N-(tert-butyl)-4-(1-(((2R,3R,4S,5R,6R)-5-hydroxy-6-(hydroxymethyl)-3-methoxy-4-(4-(3,4,5-trifluorophenyl)-1H-1,2,3-triazol-1-yl)tetrahydro-2H-pyran-2-yl)methyl)-1H-1,2,3-triazol-4-yl)piperidine-1-carboxamide] | 380 | 34
2 | CO[C@@H]1[C@@H](n2cc(-c3cc(F)c(F)c(F)c3)nn2)[C@@H](O)[C@@H](CO)O[C@@H]1Cc1cn(C2CCS(=O)(=NCc3ccccc3)CC2)nn1 (stereo partly drawn) [Example 4.28, 1-(benzylimino)-4-(4-(((2R,3R,4S,5R,6R)-5-hydroxy-6-(hydroxymethyl)-3-methoxy-4-(4-(3,4,5-trifluorophenyl)-1H-1,2,3-triazol-1-yl)tetrahydro-2H-pyran-2-yl)methyl)-1H-1,2,3-triazol-1-yl)hexahydro-1l6-thiopyran 1-oxide] | 120 | 13
3 | CO[C@@H]1[C@@H](n2cc(-c3cc(F)c(F)c(F)c3)nn2)[C@@H](O)[C@@H](CO)O[C@@H]1Cn1cc(C2CCCCC2)nn1 [Example 4.29, (2R,3R,4S,5R,6R)-6-((4-cyclohexyl-1H-1,2,3-triazol-1-yl)methyl)-2-(hydroxymethyl)-5-methoxy-4-(4-(3,4,5-trifluorophenyl)-1H-1,2,3-triazol-1-yl)tetrahydro-2H-pyran-3-ol] | 2740 | 310
4 | CO[C@@H]1[C@@H](n2cc(-c3cc(F)c(F)c(F)c3)nn2)[C@@H](O)[C@@H](CO)O[C@@H]1Cc1cn(C2CCCCC2)nn1 [Example 4.30, (2R,3R,4S,5R,6R)-6-((1-cyclohexyl-1H-1,2,3-triazol-4-yl)methyl)-2-(hydroxymethyl)-5-methoxy-4-(4-(3,4,5-trifluorophenyl)-1H-1,2,3-triazol-1-yl)tetrahydro-2H-pyran-3-ol] | 2920 | 85
5 | CO[C@@H]1[C@@H](n2cc(-c3cc(F)c(F)c(F)c3)nn2)[C@@H](O)[C@@H](CO)O[C@@H]1Cc1cn(C2CCS(=O)(=NC(C)C)CC2)nn1 (stereo partly drawn) [Example 4.31, 4-(4-(((2R,3R,4S,5R,6R)-5-hydroxy-6-(hydroxymethyl)-3-methoxy-4-(4-(3,4,5-trifluorophenyl)-1H-1,2,3-triazol-1-yl)tetrahydro-2H-pyran-2-yl)methyl)-1H-1,2,3-triazol-1-yl)-1-(isopropylimino)hexahydro-1l6-thiopyran 1-oxide] | 320 | 27
6 | CO[C@@H]1[C@@H](n2cc(-c3cc(F)c(F)c(F)c3)nn2)[C@@H](O)[C@@H](CO)O[C@@H]1Cn1cc(C2CCN(C(=O)NC3CC3)CC2)nn1 [Example 4.32, N-cyclopropyl-4-(1-(((2R,3R,4S,5R,6R)-5-hydroxy-6-(hydroxymethyl)-3-methoxy-4-(4-(3,4,5-trifluorophenyl)-1H-1,2,3-triazol-1-yl)tetrahydro-2H-pyran-2-yl)methyl)-1H-1,2,3-triazol-4-yl)piperidine-1-carboxamide] | 884 | 65
7 | CO[C@@H]1[C@@H](n2cc(-c3cc(F)c(F)c(F)c3)nn2)[C@@H](O)[C@@H](CO)O[C@@H]1Cc1cn(C2CCS(=O)(=NC3CCC(F)(F)CC3)CC2)nn1 (stereo partly drawn) [Example 4.33, 1-((4,4-difluorocyclohexyl)imino)-4-(4-(((2R,3R,4S,5R,6R)-5-hydroxy-6-(hydroxymethyl)-3-methoxy-4-(4-(3,4,5-trifluorophenyl)-1H-1,2,3-triazol-1-yl)tetrahydro-2H-pyran-2-yl)methyl)-1H-1,2,3-triazol-1-yl)hexahydro-1l6-thiopyran 1-oxide] | 220 | 71
8 | CO[C@@H]1[C@@H](n2cc(-c3ccc(Cl)c(F)c3)nn2)[C@@H](O)[C@@H](CO)O[C@@H]1Cc1cn(C2CCN(C(=O)OCc3ccccc3)CC2)nn1 [Example 4.34, benzyl 4-(4-(((2R,3R,4S,5R,6R)-4-(4-(4-chloro-3-fluorophenyl)-1H-1,2,3-triazol-1-yl)-5-hydroxy-6-(hydroxymethyl)-3-methoxytetrahydro-2H-pyran-2-yl)methyl)-1H-1,2,3-triazol-1-yl)piperidine-1-carboxylate] | 430 | 25
9 | CO[C@@H]1[C@@H](n2cc(-c3cccc(F)c3)nn2)[C@@H](O)[C@@H](CO)O[C@@H]1Cc1cn(C2CCN(C(=O)OCc3ccccc3)CC2)nn1 [Example 4.35, benzyl 4-(4-(((2R,3R,4S,5R,6R)-4-(4-(3-fluorophenyl)-1H-1,2,3-triazol-1-yl)-5-hydroxy-6-(hydroxymethyl)-3-methoxytetrahydro-2H-pyran-2-yl)methyl)-1H-1,2,3-triazol-1-yl)piperidine-1-carboxylate] | 150 | 40
10 | CO[C@@H]1[C@@H](n2cc(-c3ccc(Br)c(F)c3)nn2)[C@@H](O)[C@@H](CO)O[C@@H]1Cc1cn(C2CCN(C(=O)OCc3ccccc3)CC2)nn1 [Example 4.36, benzyl 4-(4-(((2R,3R,4S,5R,6R)-4-(4-(4-bromo-3-fluorophenyl)-1H-1,2,3-triazol-1-yl)-5-hydroxy-6-(hydroxymethyl)-3-methoxytetrahydro-2H-pyran-2-yl)methyl)-1H-1,2,3-triazol-1-yl)piperidine-1-carboxylate] | 570 | 19
11 | CO[C@@H]1[C@@H](n2cc(-c3cc(F)cc(F)c3)nn2)[C@@H](O)[C@@H](CO)O[C@@H]1Cc1cn(C2CCN(C(=O)OCc3ccccc3)CC2)nn1 [Example 4.37, benzyl 4-(4-(((2R,3R,4S,5R,6R)-4-(4-(3,5-difluorophenyl)-1H-1,2,3-triazol-1-yl)-5-hydroxy-6-(hydroxymethyl)-3-methoxytetrahydro-2H-pyran-2-yl)methyl)-1H-1,2,3-triazol-1-yl)piperidine-1-carboxylate] | 170 | 15
12 | CO[C@@H]1[C@@H](n2cc(-c3cc(F)c(F)c(F)c3)nn2)[C@@H](O)[C@@H](CO)O[C@@H]1Cn1cc(C(C)(C)C)nn1 [Example 4.38, (2R,3R,4S,5R,6R)-6-((4-(tert-butyl)-1H-1,2,3-triazol-1-yl)methyl)-2-(hydroxymethyl)-5-methoxy-4-(4-(3,4,5-trifluorophenyl)-1H-1,2,3-triazol-1-yl)tetrahydro-2H-pyran-3-ol] | 1810 | 93
13 | CCOC(=O)N1CCC(c2cn(C[C@H]3O[C@H](CO)[C@H](O)[C@H](n4cc(-c5cc(F)c(F)c(F)c5)nn4)[C@H]3OC)nn2)CC1 [Example 4.39, ethyl 4-(1-(((2R,3R,4S,5R,6R)-5-hydroxy-6-(hydroxymethyl)-3-methoxy-4-(4-(3,4,5-trifluorophenyl)-1H-1,2,3-triazol-1-yl)tetrahydro-2H-pyran-2-yl)methyl)-1H-1,2,3-triazol-4-yl)piperidine-1-carboxylate] | 520 | 44
14 | CO[C@@H]1[C@@H](n2cc(-c3cc(F)c(F)c(F)c3)nn2)[C@@H](O)[C@@H](CO)O[C@@H]1Cn1cc(C2CCOCC2)nn1 [Example 4.40, (2R,3R,4S,5R,6R)-2-(hydroxymethyl)-5-methoxy-6-((4-(tetrahydro-2H-pyran-4-yl)-1H-1,2,3-triazol-1-yl)methyl)-4-(4-(3,4,5-trifluorophenyl)-1H-1,2,3-triazol-1-yl)tetrahydro-2H-pyran-3-ol] | 3920 | 160
15 | CO[C@@H]1[C@@H](n2cc(-c3cc(F)c(F)c(F)c3)nn2)[C@@H](O)[C@@H](CO)O[C@@H]1Cn1cc(C2(O)CCCC2)nn1 [Example 4.41, (2R,3R,4S,5R,6R)-6-((4-(1-hydroxycyclopentyl)-1H-1,2,3-triazol-1-yl)methyl)-2-(hydroxymethyl)-5-methoxy-4-(4-(3,4,5-trifluorophenyl)-1H-1,2,3-triazol-1-yl)tetrahydro-2H-pyran-3-ol] | 2490 | 340
16 | CO[C@@H]1[C@@H](n2cc(-c3cc(F)c(F)c(F)c3)nn2)[C@@H](O)[C@@H](CO)O[C@@H]1Cn1cc(C2=CCCC2)nn1 [Example 4.42, (2R,3R,4S,5R,6R)-6-((4-(cyclopent-1-en-1-yl)-1H-1,2,3-triazol-1-yl)methyl)-2-(hydroxymethyl)-5-methoxy-4-(4-(3,4,5-trifluorophenyl)-1H-1,2,3-triazol-1-yl)tetrahydro-2H-pyran-3-ol] | 2620 | 790
17 | CO[C@@H]1[C@@H](n2cc(-c3cc(F)c(F)c(F)c3)nn2)[C@@H](O)[C@@H](CO)O[C@@H]1Cn1cc(C2(O)CCC2)nn1 [Example 4.43, (2R,3R,4S,5R,6R)-6-((4-(1-hydroxycyclobutyl)-1H-1,2,3-triazol-1-yl)methyl)-2-(hydroxymethyl)-5-methoxy-4-(4-(3,4,5-trifluorophenyl)-1H-1,2,3-triazol-1-yl)tetrahydro-2H-pyran-3-ol] | 4430 | 300
18 | CO[C@@H]1[C@@H](n2cc(-c3cc(F)c(F)c(F)c3)nn2)[C@@H](O)[C@@H](CO)O[C@@H]1Cn1cc(C(C)(C)O)nn1 [Example 4.44, (2R,3R,4S,5R,6R)-2-(hydroxymethyl)-6-((4-(2-hydroxypropan-2-yl)-1H-1,2,3-triazol-1-yl)methyl)-5-methoxy-4-(4-(3,4,5-trifluorophenyl)-1H-1,2,3-triazol-1-yl)tetrahydro-2H-pyran-3-ol] | 15000 | 240
19 | CO[C@@H]1[C@@H](n2cc(-c3cc(F)c(F)c(F)c3)nn2)[C@@H](O)[C@@H](CO)O[C@@H]1Cc1cn(C(C)(C)C)nn1 [Example 4.45, (2R,3R,4S,5R,6R)-6-((1-(tert-butyl)-1H-1,2,3-triazol-4-yl)methyl)-2-(hydroxymethyl)-5-methoxy-4-(4-(3,4,5-trifluorophenyl)-1H-1,2,3-triazol-1-yl)tetrahydro-2H-pyran-3-ol] | 1120 | 85
